# In patent publication US11466007B2, “Substituted lactams showing serotonin 5-HT receptor activity” (Sumitomo Pharma Co., Ltd., priority 2018, dated 2022):
# Experiment: Test 4: metabolic stability test in human hepatic microsome
# Assay type: in vitro ADME
# Settings: 0.1 mg/mL microsome, 0.1 μmol/L compound, NADPH, 37° C., 30 minutes
# Procedure: Test 4: Metabolic Stability Test in Human Hepatic Microsome
# The stability of the present compound in human hepatic microsome metabolism was evaluated as mentioned below. Human hepatic microsome was obtained from Xenontech. Human hepatic microsome, NADPH, and each test compound were mixed in 25 mmol/L phosphate buffer solution (pH 7.4) to reach the following concentrations as shown below, and the mixture was incubated at 37° C. for 30 minutes. • Human hepatic microsome: 0.1 mg/mL • NAPDH: 3.2 mmol/L • Test compound: 0.1 μmol/L
# The residual ratio of the test compound in each sample after 30 minutes was measured by LC-MS, and the metabolic stability in human hepatic microsome was calculated from the following formula. Metabolic stability in human hepatic microsome (mL/min/mg protein)=−LN(residual ratio)/30/0.1
row,Metabolic stability in human hepatic microsome [mL/min/mg protein],Compound
1,<0.01,"O=C1c2ncccc2CCN1CCN1CCN(c2noc3ccccc23)CC1 [Example 1, 7-{2-[4-(1,2-Benzoisoxazol-3-yl)piperazin-1-yl]ethyl}-6,7-dihydro-1,7-naphthyridin-8(5H)-one]"
2,0.22,"COc1cc2c(cn1)C(=O)N(CCN1CCN(c3nsc4ccccc34)CC1)CC2 [Example 2, 2-{2-[4-(1,2-Benzoisothiazol-3-yl)piperazin-1-yl]ethyl}-6-methoxy-3,4-dihydro-2,7-naphthyridin-1(2H)-one]"
3,0.011,O=C1c2ncccc2CCN1CCN1CCC(c2noc3cc(F)ccc23)CC1 [Example 4]
4,<0.01,O=C1c2ncccc2CCN1CCN1CCC(c2noc3ccc(F)cc23)CC1 [Example 5]
5,0.061,Cc1cc2c(C3CCN(CCN4CCc5cccnc5C4=O)CC3)noc2cc1F [Example 6]
6,0.041,O=C1c2ncccc2CCN1CCN1CCN(c2nsc3ccccc23)CC1 [Example 7]
7,0.064,O=c1c2ncccc2ccn1CCN1CCN(c2nsc3ccccc23)CC1 [Example 8]
8,0.100,O=C1c2cccnc2CCN1CCN1CCN(c2nsc3ccccc23)CC1 [Example 9]
9,0.02,O=c1c2ncccc2ccn1CCN1CCC(c2noc3cc(F)ccc23)CC1 [Example 12]
10,<0.01,COc1cc2c(cn1)C(=O)N(CCN1CCC(c3noc4ccccc34)CC1)CC2 [Example 14]
11,0.055,CC1CN(CCN2CCC(c3noc4ccccc34)CC2)C(=O)c2ncccc21 (centres unmarked) [Example 15]
12,<0.01,Cn1cnc2c1CCN(CCN1CCC(c3noc4ccccc34)CC1)C2=O [Example 16]
13,<0.01,Cn1cc2c(n1)CCN(CCN1CCC(c3noc4ccccc34)CC1)C2=O [Example 17]
14,0.018,O=C1c2ncccc2CCC1CCN1CCC(c2noc3ccccc23)CC1 (centres unmarked) [Example 24]
15,<0.01,O=C1c2ncccc2CCN1CCN1CCC(c2nsc3ccccc23)CC1 [Example 26]
16,0.048,O=C1c2ncccc2CCN1CCN1CCN(c2nsc3cc(F)ccc23)CC1 [Example 27]
17,0.017,Cn1ncc2c1CCC(CCN1CCC(c3noc4ccccc34)CC1)C2=O (centres unmarked) [Example 28]
18,0.063,Cn1ncc2c1CCC(CCN1CCN(c3nsc4ccccc34)CC1)C2=O (centres unmarked) [Example 29]
19,0.065,Cn1ncc2c1CCCC(CCN1CCC(c3noc4ccccc34)CC1)C2=O (centres unmarked) [Example 30]
20,<0.01,"Cc1noc2c1C(=O)N(CCN1CCN(c3noc4ccccc34)CC1)CC2 [Example 32, 5-{2-[4-(1,2-Benzoisoxazol-3-yl)piperazin-1-yl]ethyl}-3-methyl-6,7-dihydro[1,2]oxazolo[4,5-c]pyridin-4(5H)-one]"
21,0.074,Cc1noc2c1C(=O)N(CCN1CCC(c3noc4ccccc34)CC1)CC2 [Example 33]
22,0.017,"Cc1c2c(nn1C)CCN(CCN1CCC(c3noc4ccccc34)CC1)C2=O [Example 37, 5-{2-[4-(1,2-Benzoisoxazol-3-yl)piperidin-1-yl]ethyl}-2,3-dimethyl-2,5,6,7-tetrahydro-4H-pyrazolo[4,3-c]pyridin-4-one]"
23,0.016,Cc1nc2c(o1)CCN(CCN1CCC(c3noc4ccccc34)CC1)C2=O [Example 39]
